According to patent publication US10876003B2, “Class of stable heptamethine cyanine fluorophores and biomedical applications thereof” (priority 2014, dated 2020):

Tests used:
[1] = methanol; James et al., Theranostics 2013; cited from earlier work
[2] = Maximum absorbance wavelength in pH 7.4 phosphate-buffered saline; type: physicochemical; details: for λmax: 2 μM in 0.1 M PBS
Experimental: Table 1 includes exemplary compounds according to formula II, in which n is 2, R^1 is —CH2—, m is 2, R^2 is methyl, R^14 to R^17 are methyl, and R^5, R^6, R^8, R^10, R^11 and R^13 are hydrogen. Other substituents are as indicated. The maximum absorbance wavelength (λmax) was measured in pH 7.4 phosphate-buffered saline.
Unless stated otherwise, reactions were conducted in oven-dried glassware under an atmosphere of nitrogen or argon using anhydrous solvents (passed through activated alumina columns) All other commercially obtained reagents were used as received. […] Flash column chromatography was performed using normal phase or reverse phase on a CombiFlash® Rf 200i (Teledyne Isco Inc.). […] Data for ^1H NMR spectra are reported as follows: chemical shift (6 ppm), multiplicity, coupling constant (Hz), and integration. ^13C NMR spectra were recorded on Varian spectrometers (at 100 or 125 MHz). Data for ^13C NMR spectra are reported in terms of chemical shift. IR spectra were recorded on a JASCO FT/IR 4100 spectrometer and are reported in terms of frequency of absorption (cm^−1). High-resolution LC/MS analyses were conducted on a Thermo-Fisher LTQ-Orbitrap-XL hybrid mass spectrometer system with an Ion MAX API electrospray ion source in positive ion mode. Separations were carried out on a narrow-bore (50×2.1 mm), Zorbax Rapid-Resolution, reversed-phase C18 (3.5 μm) column with a flow rate of 250 μL/min with a 10 min, 2-90% gradient of MeCN/H2O containing 0.1% HCOOH. […] Fluorescence traces and quantum yield measurements were recorded on a PTI QuantaMaster steady-state spectrofluorimeter operated by FelixGX 4.0.3 software, with 10 nm excitation and emission slit widths, 0.1 s integration rate, and enabled emission correction.

[3] = Quantum yields, molar absorption coefficients, absorbance and emission spectra; type: physicochemical; details: for ε (M^−1cm^−1): Table 4 footnote: methanol, method b204: PBS, 25° C.; for λem (nm) / λmax (nm): methanol
[4] = type: physicochemical; details: buffer, pH 7.4
Experimental: Solutions of commercially available IRDye 800 CW (a phenol-substituted heptamethine cyanine available from Li-Cor Biotechnology, Lincoln, Nebr.) and compound 13 (Glut-Cy-503), 10 μM, were prepared in pH 7.4 phosphate-buffered saline and exposed to physiologically relevant concentrations of glutathione (GSH, 1 mM) at room temperature. […] Upon analysis by LCMS, signals consistent with the glutathione adduct were observed concomitant with the disappearance of the phenol (IRDye 800 CW) (FIG. 7).

CC1(C)C(=CC=C2CCCC(C=CC3=[N+](CCCCS(=O)(=O)[O-])c4ccccc4C3(C)C)=C2Cl)N(CCCCS(=O)(=O)[O-])c2ccccc21.[Na+] [IR783]
Φf of standard [1]: 0.084

CCCN1/C(=C/C=C2\CCCC(/C=C/C3=[N+](CCC)c4ccccc4C3(C)C)=C2OCCN(C)C(=O)OCC2c3ccccc3-c3ccccc32)C(C)(C)c2ccccc21 [Compound 9]
λmax ([2]; pH 7.4, with 20% DMSO (v/v)): 765 nm

CC1(C)C(/C=C/C=C/C=C/C=C2\N(CCCCS(=O)(=O)O)c3ccc4ccccc4c3C2(C)C)=[N+](CCCCS(=O)(=O)[O-])c2ccc3ccccc3c21 [ICG, indocyanine green, reference compound]
ε (M^−1cm^−1) [3]: 204,000 M^−1cm^−1
λem (nm) [3]: 822 nm
λmax (nm) [3]: 785 nm
Φf of standard [1]: 0.078

CC1(C)C(=CC=C2CCCC(C=CC3=[N+](CCCCCC(=O)[O-])c4ccc(S(=O)(=O)[O-])cc4C3(C)C)=C2Oc2ccc(S(=O)(=O)[O-])cc2)N(CCCCS(=O)(=O)[O-])c2ccc(S(=O)(=O)[O-])cc21.[Na+].[Na+].[Na+].[Na+] [IRDye 800 CW]
t1/2 of degradation to the glutathione adduct [4]: 50 min

CCCN1/C(=C/C=C2\CCCC(/C=C/C3=[N+](CCC)c4ccccc4C3(C)C)=C2N(C)CCO)C(C)(C)c2ccccc21 [Compound 6]
broad hypsochromic absorbance maximum ([2]; solvent not given): 687 nm

CCCN1/C(=C/C=C2\CCCC(/C=C/C3=[N+](CCC)c4ccccc4C3(C)C)=C2OCCN(C)C(=O)OCc2ccccc2)C(C)(C)c2ccccc21 [Compound 8]
λmax ([2]; pH 7.4, with 20% DMSO (v/v)): 763 nm
λex [3]: 774 nm
ε (M^−1cm^−1) [3]: 187,000 M^−1cm^−1
Φf ([3]; measured in methanol relative to ICG): 0.22
λem (nm) [3]: 797 nm
λmax (nm) [3]: 774 nm

CCCN1/C(=C/C=C2\CCCC(/C=C/C3=[N+](CCC)c4ccccc4C3(C)C)=C2OCCN(C)C(=O)CCCC(=O)O)C(C)(C)c2ccccc21 [Compound 10]
λmax ([2]; pH 7.4, with 0.1% DMSO (v/v)): 760 nm
